{"source": "patent US9890407B2", "about": "“Method for synthesizing cellulose in vitro” (University of Virginia Patent Foundation, priority 2013, dated 2018)", "molecules": {"B1": {"name": "BcsZ: E. coli periplasmic cellulase encoded in cellulose synthase operons (protein, UniProt P37651 22-368, looked up)", "Endoglucanase": "ACTWPAWEQFKKDYISQEGRVIDPSDARKITTSEGQSYGMFSALAANDRAAFDNILDWTQNNLAQGSLKERLPAWLWGKKENSKWEVLDSNSASDGDVWMAWSLLEAGRLWKEQRYTDIGSALLKRIAREEVVTVPGLGSMLLPGKVGFAEDNSWRFNPSYLPPTLAQYFTRFGAPWTTLRETNQRLLLETAPKGFSPDWVRYEKDKGWQLKAEKTLISSYDAIRVYMWVGMMPDSDPQKARMLNRFKPMATFTEKNGYPPEKVDVATGKAQGKGPVGFSAAMLPFLQNRDAQAVQRQRVADNFPGSDAYYNYVLTLFGQGWDQHRFRFSTKGELLPDWGQECANSH"}}, "key": {"[1]": {"tested_on": "Rs BcsA-B complex", "test": "Cellulose synthase sedimentation assay (3H-labeled water-insoluble cellulose, scintillation counting)", "type": "biochemical, Rhodobacter sphaeroides", "settings": "for divalent cation supporting cellulose synthase activity: 20 mM cation, 45 min 37° C.", "protocol": "(FIG. 4A) Enzyme-coupled cellulose synthesis assays were performed as described in FIG. 3 in the absence or presence of 0.1 mg/ml E. coli BesZ. […] Inset: Radioactive sedimentation assay performed with ND-reconstituted BcsA-B synthesizing cellulose in the absence or presence of BcsZ. […] The obtained product is quantified relative to the polymer formed in the absence of any nucleoside diphosphate.\nFIG. 9A-9B (also referred to as Example 1, Supplementary FIG. 3): Cation selectivity and pH optimum of cellulose synthase. (FIG. 9A) Cellulose synthesis reactions were performed in the presence of 20 mM of the indicated cations or in the absence of any additional divalent cations with and without addition of 20 mM EDTA. The activities are shown relative to the activity in the presence of magnesium. […] All activity assays were performed for 45 min at 37° C. with 1 μM PLs-reconstituted. Rs BcsA-B and by quantifying the accumulation of ^3H-labeled water insoluble cellulose as described.\nFollowing incubation at 37° C. for 45 min, the polymerization reaction was terminated by addition of 2% SDS and the water-insoluble polymer was pelleted by centrifugation at 15,000 rpm at room temperature (RT). The obtained pellet was resuspended in 20 μL 50 mM Tris pH 7.5, 0.1 M NaCl and spotted at the origin of a descending Whatman-2MM chromatography paper, which was developed in an aqueous solution of 60% ethanol. For enzymatic degradation, the pellet was resuspended in 20 μL 50 mM sodium acetate pH 4.5 and 100 mM NaCl and was digested with 0.1 mg/ml of endo-β-1,4- or endo-β-1,3 glucanase from Aspergillus niger (TCI) or Trichoderma sp. (Megazyme), respectively. Following paper chromatography, the high molecular weight polymer retained at the origin was quantified by scintillation counting.\nFollowing synthesis, the reactions were treated as described above."}, "[2]": {"tested_on": "Rs BcsA-B complex", "test": "Enzyme-coupled (PK/LDH) cellulose synthase activity assay, UDP formation followed via NADH oxidation at 340 nm", "type": "biochemical, Rhodobacter sphaeroides", "settings": "for residual activity with alternative substrate as only carbohydrate source, relative to UDP-Glc: 5 mM substrate, 0.5 μM PL-reconstituted BcsA-B", "protocol": "FIG. 3A-3D (also referred to as Example 1, FIG. 3): Kinetic analysis of cellulose synthesis and stimulation by cyclic-di-GMP. (FIG. 3A) Cellulose synthesis reactions were performed in the presence of IU PK and LDH, 0.5 mM NADH and 1 mM PEP. The LDH-catalyzed oxidation of NADH to NAD^+ was monitored spectrophotometrically at 340 nm. […] Addition of 1 mM UDP to the reaction rapidly depletes NADH by circumventing cellulose synthesis. […] The data were fit to monophasic Michaelis-Menten kinetics. […] All reactions were performed at room temperature with 0.5 μM ND-reconstituted BcsA-B in a total volume of 20 μl.\nThus, the second product of the cellulose synthase reaction is UDP. […] Because PK recognizes UDP but not UMP as substrate (36), the successful coupling of cellulose synthesis with its activity implies the formation of UDP. To ensure that all BcsA-B complexes are accessible to the substrates and can contribute to the observed reaction, the complex was reconstituted into lipid nanodiscs (ND) (FIG. S4), which are edge-stabilized, planar lipid bilayer discs approximately 10 nm in diameter (37). At this size, each ND most likely contains a single BcsA-B complex (38).\n(§1) Pyruvate kinase (PK)—and lactate dehydrogenase (LDH)-coupled activity assays were performed by incubating 0.5 μM cellulose synthase with 1 U PK and 1 U LDH, 0.5 mM NADH, 1 mM phosphoenolpyruvate, and 30 mM MgCl2 in 20 mM Tris pH 7.5, 100 mM NaCl, 5 mM cellobiose and 10% glycerol in a total volume of 20 μL. The cellulose synthase complex was added last to the reaction mix after a pre-incubation for 10 min at RT. The decrease in absorbance at 340 nm was measured in a SpectraMax plate reader in Corning 384 well clear flat bottom assay plates. Control reactions in the absence of cellulose synthase were performed to determine the background NADH oxidation. Data were plotted and analyzed in Origin (5) and fitted to monophasic Michaelis-Menten kinetics as described (3)."}, "[3]": {"biological_target": "T1, Rhodobacter sphaeroides BcsA-B complex (cellulose synthase), wild type, BcsA SEQ ID NO: 1, BcsB SEQ ID NO: 3 (Cereibacter sphaeroides, UniProt Q3J125)", "T1 construct": "pETDuet, E. coli C43; purified, reconstituted in nanodiscs, proteoliposomes or detergent", "T1 sequence (Q3J125 1-788)": "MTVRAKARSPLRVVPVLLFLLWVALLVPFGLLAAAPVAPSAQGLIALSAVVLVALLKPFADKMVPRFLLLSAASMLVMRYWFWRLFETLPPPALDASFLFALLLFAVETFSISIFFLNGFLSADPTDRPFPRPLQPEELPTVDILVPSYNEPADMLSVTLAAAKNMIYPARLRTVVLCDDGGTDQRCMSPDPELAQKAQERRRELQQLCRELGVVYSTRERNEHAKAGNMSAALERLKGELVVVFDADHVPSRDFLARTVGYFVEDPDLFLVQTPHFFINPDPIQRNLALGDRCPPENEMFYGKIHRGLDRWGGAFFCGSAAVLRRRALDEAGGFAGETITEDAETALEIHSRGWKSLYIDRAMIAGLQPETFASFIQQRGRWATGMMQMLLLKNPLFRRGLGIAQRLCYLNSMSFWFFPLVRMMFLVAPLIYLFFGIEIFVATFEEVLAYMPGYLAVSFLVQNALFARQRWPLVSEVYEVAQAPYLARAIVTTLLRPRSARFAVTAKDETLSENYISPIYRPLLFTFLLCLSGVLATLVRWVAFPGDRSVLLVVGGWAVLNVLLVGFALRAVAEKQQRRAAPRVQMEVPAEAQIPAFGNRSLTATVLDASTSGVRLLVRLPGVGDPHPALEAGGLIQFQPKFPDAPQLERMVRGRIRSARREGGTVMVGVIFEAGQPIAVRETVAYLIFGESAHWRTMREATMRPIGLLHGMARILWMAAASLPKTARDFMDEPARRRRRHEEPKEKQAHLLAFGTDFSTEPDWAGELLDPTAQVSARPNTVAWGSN", "T1 sequence (Q3J126 21-725 partner)": "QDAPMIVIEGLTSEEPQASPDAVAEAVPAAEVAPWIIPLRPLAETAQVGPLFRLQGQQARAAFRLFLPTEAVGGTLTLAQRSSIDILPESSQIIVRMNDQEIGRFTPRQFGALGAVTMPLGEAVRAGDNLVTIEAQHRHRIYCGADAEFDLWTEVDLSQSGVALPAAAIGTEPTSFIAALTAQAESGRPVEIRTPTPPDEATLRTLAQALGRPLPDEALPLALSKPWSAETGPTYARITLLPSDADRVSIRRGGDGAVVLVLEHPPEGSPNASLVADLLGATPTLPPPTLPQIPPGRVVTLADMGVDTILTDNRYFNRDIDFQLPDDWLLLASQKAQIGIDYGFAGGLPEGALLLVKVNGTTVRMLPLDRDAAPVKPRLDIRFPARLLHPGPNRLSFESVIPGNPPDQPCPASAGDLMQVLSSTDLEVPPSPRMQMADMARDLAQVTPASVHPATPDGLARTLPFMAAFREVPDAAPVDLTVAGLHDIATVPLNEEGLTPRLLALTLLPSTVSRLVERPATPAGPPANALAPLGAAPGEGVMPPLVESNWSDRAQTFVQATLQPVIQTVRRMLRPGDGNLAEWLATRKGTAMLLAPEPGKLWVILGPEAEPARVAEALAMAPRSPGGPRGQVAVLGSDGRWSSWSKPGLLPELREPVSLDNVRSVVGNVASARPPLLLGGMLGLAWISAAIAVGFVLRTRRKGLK", "test": "Inhibition of cellulose synthesis by alternative substrates (enzyme-coupled assay, PLs-reconstituted BcsA-B)", "type": "biochemical", "settings": "1 mM UDP-Glc; for inhibition of polymer synthesis by alternative UDP-sugars: increasing concentrations of UDP-sugar; for reduction of the apparent reaction rate (inhibition): 5 mM alternative UDP-sugar, 90 min, 37° C.", "protocol": "as §1"}, "[4]": {"settings": "0.1 mg/ml E. coli BcsZ, ND-reconstituted BcsA-B"}}, "data": [{"molecule": "[Mg+2]", "note": "[Mg2+]", "values": [{"measurement": "divalent cation supporting cellulose synthase activity", "setting": "[1]; 1 μM PL-reconstituted BcsA-B", "result": "approximately equal activity levels"}]}, {"molecule": "[Mn+2]", "note": "[Mn2+]", "values": [{"measurement": "divalent cation supporting cellulose synthase activity", "setting": "[1]; 1 μM PL-reconstituted BcsA-B", "result": "approximately equal activity levels"}]}, {"molecule": "O=c1ccn([C@@H]2O[C@H](COP(=O)(O)OP(=O)(O)O)[C@@H](O)[C@H]2O)c(=O)[nH]1", "note": "[UDP, uridine diphosphate]", "values": [{"measurement": "product formed relative to absence of nucleoside diphosphate", "setting": "[1]; 0.7 mM UDP, 0.5 mM UDP-Glc, 1 μM PL-reconstituted BcsA-B, 60 min 37° C.", "result": 50, "unit": "%"}, {"measurement": "mode of inhibition of cellulose synthase", "setting": "[1]; 0.7 mM UDP, increasing UDP-Glc", "result": "competitive"}]}, {"molecule": "CC(=O)N[C@H]1[C@@H](OP(=O)(O)OP(=O)(O)OC[C@H]2O[C@@H](n3ccc(=O)[nH]c3=O)[C@H](O)[C@@H]2O)O[C@H](CO)[C@@H](O)[C@@H]1O", "note": "[UDP-N-acetyl glucosamine]", "values": [{"measurement": "residual activity with alternative substrate as only carbohydrate source, relative to UDP-Glc", "setting": "[2]", "result": "about 20%"}]}, {"molecule": "CC(=O)N[C@H]1[C@@H](OP(=O)(O)OP(=O)(O)OC[C@H]2O[C@@H](n3ccc(=O)[nH]c3=O)[C@H](O)[C@@H]2O)O[C@H](CO)[C@@H](O)[C@@H]1O", "note": "[UDP-NAG, UDP-N-acetyl glucosamine]", "values": [{"measurement": "inhibition of polymer synthesis by alternative UDP-sugars", "setting": "[3]", "result": "concentration-dependent inhibition"}, {"measurement": "reduction of the apparent reaction rate (inhibition)", "setting": "[3]", "result": 20, "unit": "%"}]}, {"molecule": "O=c1ccn([C@@H]2O[C@H](COP(=O)(O)OP(=O)(O)O[C@H]3OC[C@@H](O)[C@H](O)[C@H]3O)[C@@H](O)[C@H]2O)c(=O)[nH]1", "note": "[UDP-Xyl, UDP-xylose]", "values": [{"measurement": "inhibition of polymer synthesis by alternative UDP-sugars", "setting": "[3]", "result": "strongest inhibitor"}, {"measurement": "reduction of the apparent reaction rate (inhibition)", "setting": "[3]", "result": "about 60%"}]}, {"molecule": "O=c1ccn([C@@H]2O[C@H](COP(=O)(O)OP(=O)(O)O[C@H]3OC[C@H](O)[C@H](O)[C@H]3O)[C@@H](O)[C@H]2O)c(=O)[nH]1", "note": "[UDP-arabinose]", "values": [{"measurement": "residual activity with alternative substrate as only carbohydrate source, relative to UDP-Glc", "setting": "[2]", "result": "about 20%"}]}, {"molecule": "O=C(O)[C@H]1O[C@H](OP(=O)(O)OP(=O)(O)OC[C@H]2O[C@@H](n3ccc(=O)[nH]c3=O)[C@H](O)[C@@H]2O)[C@H](O)[C@@H](O)[C@@H]1O", "note": "[UDP-glucuronic acid]", "values": [{"measurement": "residual activity with alternative substrate as only carbohydrate source, relative to UDP-Glc", "setting": "[2]", "result": "about 20%"}]}, {"molecule": "O=c1ccn([C@@H]2O[C@H](COP(=O)(O)OP(=O)(O)O[C@H]3OC[C@@H](O)[C@H](O)[C@H]3O)[C@@H](O)[C@H]2O)c(=O)[nH]1", "note": "[UDP-xylose]", "values": [{"measurement": "residual activity with alternative substrate as only carbohydrate source, relative to UDP-Glc", "setting": "[2]", "result": "about 20%"}]}, {"molecule": "B1", "values": [{"measurement": "effect on BcsA-B's apparent reaction rate", "setting": "[2]; [4]", "result": "does not change"}, {"measurement": "effect on accumulation of HMW cellulose", "setting": "[1]; [4]", "result": "prevents the accumulation of HMW cellulose"}]}]}
